What was measured:
YST-1 [1] = assay: % inhibition of CellTiter-Glo viability at highest tested concentration (72 h), relative to DMSO and benzethonium chloride controls; higher = more inhibition
In short: (§1)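 Viability was scored by CellTiter-Glo ATP luminescence, scaled from vehicle to positive-control wells, with duplicates averaged where present. The cells, MPNST lines and primary human Schwann cells at 750–1000 per well, sat 72 h at 37 °C, 5% CO2, in 384-well plates preprinted with each compound at five concentrations in 10-fold steps. Four-parameter logistic fits were run on the data. These fits give drug sensitivity score and relative IC50 censored at the top concentration, and percent inhibition is reported at the top concentration.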

HS-Sch-2 [2] = assay: as above
In short: as §1

HS-PSS [3] = assay: as above
In short: as §1

YST-1 [4] = assay: drug sensitivity score (DSS, CellTiter-Glo viability, 72 h) (DSS (dimensionless)); higher = more sensitive; extreme values may be limits of the assay
In short: as §1

HS-Sch-2 [5] = assay: as above
In short: as §1

HS-PSS [6] = assay: as above
In short: as §1

HS-PSS [7] = assay: drug sensitivity score (DSS, CellTox-Green cytotoxicity, 72 h) (DSS (dimensionless)); higher = more cytotoxic; extreme values may be limits of the assay
In short: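 MPNST cell lines and primary human Schwann cells were incubated 72 h at 37 °C in 384-well plates holding five 10-fold compound dilutions. CellTox-Green was added before seeding at a final 1:1000 dilution and reported fluorescence from DNA released by disrupted cells. Signals were scaled to vehicle and positive-control wells, and cultures failing plate quality control were dropped. Drug sensitivity score and relative IC50 come from four-parameter logistic fits, with IC50 censored at the top concentration.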

Row | SMILES | % inhibition (YST-1 [1]) [%] | % inhibition (HS-Sch-2 [2]) [%] | % inhibition (HS-PSS [3]) [%] | drug sensitivity score (YST-1 [4]) | drug sensitivity score (HS-Sch-2 [5]) | drug sensitivity score (HS-PSS [6]) | drug sensitivity score (HS-PSS [7])
1 | C[C@H]1C=C2C(=O)O[C@H]3CC[C@@H](C1)[C@@]23O [Galiellalactone] (max concentration tested 25000 nM) | 64.8 | 93.5 | 58.6 | 2.78 | 7.88 | 3.82 | 0
2 | Cc1ccc(C(=O)Nc2ccc(Oc3cc4cnn(C)c4cc3-c3cn[nH]c3)c(F)c2)c(=O)n1-c1ccc(F)cc1 [Merestinib] (max concentration tested 1000 nM) | 25.2 | 31 | 46.7 | 1.74 | 1.13 | 3.07 | 0
3 | Oc1ncc(N(CCCl)CCCl)c(O)n1 [Uramustine] (max concentration tested 10000 nM) | 1.38 | 3 | -0.55 | 0 | 0 | 0 | 0
4 | CNC(=O)[C@@H](NC(=O)[C@H](CC(C)C)[C@H](O)C(=O)NO)C(C)(C)C [Marimastat] (max concentration tested 10000 nM) | 7.56 | 17.1 | -7.14 | 0 | 0.33 | 0 | 0
5 | Cc1cnc(Nc2ccc(OCCN3CCCC3)cc2)nc1Nc1cccc(S(=O)(=O)NC(C)(C)C)c1 [Fedratinib] (max concentration tested 10000 nM) | 87.1 | 102 | 96.5 | 8.29 | 10.8 | 9.41 | 3.87
6 | O=C(O)c1ccc(O)c2ncccc12 [IOX-1] (max concentration tested 100000 nM) | 46 | 18.7 | 1.4 | 2.03 | 0.26 | 0 | 0
7 | CC(C)Oc1cc(Nc2nc(N[C@@H](C)c3ccc(F)cn3)ncc2Cl)n[nH]1 [AZ-23] (max concentration tested 1000 nM) | 26.5 | 21.1 | 12.4 | 1.96 | 1.29 | 0.29 | 0
8 | COc1ccc(-c2nc(N3CCOCC3)c3sc(CN(C)c4ncc(C(=O)NO)cn4)cc3n2)cn1 [CUDC-907] (max concentration tested 10000 nM) | 100 | 99.5 | 98.6 | 40.4 | 31.9 | 31.6 | 19.2
9 | Nc1nc(N)c2nc(-c3cccc(O)c3)c(-c3cccc(O)c3)nc2n1 [TG100-115] (max concentration tested 10000 nM) | 20.9 | 10.8 | 9.07 | 1.38 | 0 | 0 | 0
10 | CNC(=O)c1cccc2cc(Oc3ccnc4cc(OCC5(N)CC5)c(OC)cc34)ccc12 [Lucitanib] (max concentration tested 10000 nM) | 26.4 | 31.9 | 23.4 | 2.13 | 1.19 | 1.71 | 0
11 | Cc1cc(C)c(/C=C2\C(=O)Nc3ccccc32)[nH]1 [Semaxanib] (max concentration tested 10000 nM) | 14.4 | -7.06 | 0.19 | 2.84 | 0 | 0 | 4.89
12 | COc1cc(Nc2ncc(F)c(Nc3ccc4c(n3)N(COP(=O)(O)O)C(=O)C(C)(C)O4)n2)cc(OC)c1OC [Fostamatinib] (max concentration tested 2500 nM) | 67.3 | 36 | 40.4 | 4.22 | 2.96 | 2.95 | 0
13 | Cc1ccc(NC(=O)c2ccc(CN3CC[C@H](N(C)C)C3)c(C(F)(F)F)c2)cc1Nc1nccc(-c2cncnc2)n1 [Bafetinib] (max concentration tested 1000 nM) | 28.5 | 16.8 | -10.6 | 1.49 | 0.33 | 0 | 0
14 | Cc1nc(Nc2n[nH]c3c2CN(C(=O)N[C@H](CN(C)C)c2ccccc2)C3(C)C)c2sccc2n1 (max concentration tested 10000 nM) | 101 | 101 | 86.4 | 24.2 | 15.4 | 27.9 | 10.6
15 | O=C(Nc1ccc(-c2ccnc(Nc3ccc(N4CCOCC4)cc3)n2)cc1)[C@H]1CCCN1 [XL019] (max concentration tested 10000 nM) | 24.9 | 22.7 | 32.7 | 1.13 | 1.09 | 1.67 | 0
16 | COc1cc(C(=O)NC2CCN(C)CC2)c(F)cc1Nc1ncc2c(n1)N(C1CCCC1)CC(F)(F)C(=O)N2C [TAK-960] (max concentration tested 2500 nM) | 2.44 | 16.2 | 11.9 | 0 | 0.18 | 0 | 0
17 | S=C(NCc1ccc2c(c1)OCO2)N1CCN(c2ncnc3c2oc2ccccc23)CC1 [Amuvatinib] (max concentration tested 10000 nM) | 31.3 | 86.5 | 83.6 | 1.22 | 6.77 | 9.62 | 0
18 | O=C(Nc1cccc(C(F)(F)F)c1)Nc1cc(S(=O)(=O)NC2CC2)ccc1-c1ccsc1 [AGI-6780] (max concentration tested 10000 nM) | 12.9 | 28.6 | 24.7 | 0.34 | 2.42 | 0.86 | 0

Row | SMILES | % inhibition (YST-1 [1]) [%] | % inhibition (HS-Sch-2 [2]) [%] | % inhibition (HS-PSS [3]) [%] | drug sensitivity score (YST-1 [4]) | drug sensitivity score (HS-Sch-2 [5]) | drug sensitivity score (HS-PSS [6]) | drug sensitivity score (HS-PSS [7])
19 | NC(=S)N/N=C/c1ncccc1N [Triapine] (max concentration tested 10000 nM) | 63.8 | 63.9 | 65.6 | 2.82 | 5.68 | 4.81 | 0.94
20 | Cn1cc(-c2ccc3nnc(C(F)(F)c4ccc5ncccc5c4)n3n2)cn1 (max concentration tested 10000 nM) | 18.4 | 11.5 | 17.4 | 0.54 | 0.05 | 1.21 | 0
21 | Cn1ncc(Cl)c1-c1cc(C(=O)N[C@H](CN)Cc2ccc(F)c(F)c2)oc1Cl [Uprosertib] (max concentration tested 10000 nM) | 21.9 | 6.41 | 9.97 | 3.04 | 0 | 0 | 0
22 | CS(=O)(=O)N1CCc2c(-c3cnc(N)nc3)nc(N3CCOCC3)nc21 (max concentration tested 10000 nM) | 77.8 | 32 | 42.7 | 14.4 | 3.35 | 4.81 | 0
23 | N.N.[Cl][Pt][Cl] [Cisplatin] (max concentration tested 100000 nM) | 95.9 | 100 | 86.4 | 13.8 | 23.1 | 13.1 | 9.13
24 | CCc1nc(-c2cccc(C)c2)c(-c2ccnc(NC(=O)c3ccccc3)c2)s1 [TAK-715] (max concentration tested 10000 nM) | 24 | 27.9 | 19.3 | 2.91 | 2.55 | 0.81 | 0
25 | O=S(=O)(c1cccc2c(O)nccc12)N1CCCNCC1 [Hydroxyfasudil] (max concentration tested 37500 nM) | 12.7 | 21.6 | 19.5 | 0.03 | 1.47 | 1.21 | 0
26 | O=c1ncn2nc(Sc3ccc(F)cc3F)ccc2c1-c1c(Cl)cccc1Cl [VX 745] (max concentration tested 10000 nM) | 31.1 | 22.6 | 21.1 | 3.73 | 0.7 | 0.47 | 0
27 | CC(C)Oc1ccc(C(=O)N[C@H](CNC(=O)CN(C)C)Cc2ccc(-c3cn4cccc([C@H](C)O)c4n3)cc2)cc1Cl (max concentration tested 10000 nM) | 62 | 95.2 | 66.7 | 19.5 | 24.1 | 8.56 | 1.48
28 | Nc1cccc2c1CN(C1CCC(=O)NC1=O)C2=O (configuration not stated) [Lenalidomide] (max concentration tested 100000 nM) | 20.7 | 15.6 | 6.75 | 1.7 | 0.18 | 0 | 0
29 | Nc1nc2[nH]cc(CCc3ccc(C(=O)N[C@@H](CCC(=O)O)C(=O)O)cc3)c2c(=O)[nH]1 [Pemetrexed] (max concentration tested 10000 nM) | 19.7 | 62.5 | 6.45 | 4.42 | 17.1 | 0 | 0
30 | Cc1ccc2nc(CN(CCN(Cc3nc4ccc(C)cc4[nH]3)Cc3nc4ccc(C)cc4[nH]3)Cc3nc4ccc(C)cc4[nH]3)[nH]c2c1 (max concentration tested 50000 nM) | 67.5 | 80.3 | 74.3 | 6.33 | 7.29 | 7.02 | 0.03
31 | O=C1NC(=O)/C(=C/c2ccc3nccc(-c4ccncc4)c3c2)S1 (max concentration tested 10000 nM) | 86.6 | 37.8 | 49.6 | 9.37 | 1.71 | 2.69 | 0
32 | Nc1ncnc2c1c(-c1cccc(OCc3ccccc3)c1)cn2[C@H]1C[C@@H](CN2CCC2)C1 [NVP-AEW541] (max concentration tested 10000 nM) | 98.3 | 99.8 | 100 | 13 | 8.08 | 5.83 | 7.08
33 | C/C=C1\NC(=O)[C@H]2CSSCC/C=C/[C@H](CC(=O)N[C@H](C(C)C)C(=O)N2)OC(=O)[C@H](C(C)C)NC1=O [Romidepsin] (max concentration tested 1000 nM) | 98.5 | 100 | 95.4 | 37.8 | 33 | 5.59 | 3.93
34 | COc1cccc2c1C(=O)c1c(O)c3c(c(O)c1C2=O)C[C@@](O)(/C(CO)=N/NC(=O)CCCCCN1C(=O)C=CC1=O)C[C@@H]3O[C@H]1C[C@H](N)[C@H](O)[C@H](C)O1 [Aldoxorubicin] (max concentration tested 1000 nM) | 101 | 101 | 97.2 | 14.4 | 11 | 9.01 | 2.15
35 | FC(F)(F)c1ccc(CNc2ccc(Cc3c[nH]c4ncc(Cl)cc34)cn2)cn1 [Pexidartinib] (max concentration tested 10000 nM) | 17.3 | 18.9 | 25.9 | 0.84 | 0.57 | 1.79 | 0
36 | COC[C@H](NC(=O)c1cnc(C)s1)C(=O)N[C@@H](COC)C(=O)N[C@@H](Cc1ccccc1)C(=O)[C@@]1(C)CO1 [Oprozomib] (max concentration tested 2500 nM) | 101 | 102 | 98.3 | 18.4 | 26.3 | 14.3 | 7.1

From the supplement of paper PMC5579334
